This note sets out measurements from patent publication US7273880B2, “Selective NPY (Y5) antagonists” (H. Lunbeck A/S, priority 1999, dated 2007).

For data set [1], the target named is T1, human Y5 receptor (hNPY-5) (Homo sapiens, UniProt Q15761).
T1 construct: expressed in transfected cells; host or cells: mouse fibroblast LM(tk-) cells, e.g. L-hY5-7 (ATCC CRL-11995)
T1 sequence (Q15761 1-445): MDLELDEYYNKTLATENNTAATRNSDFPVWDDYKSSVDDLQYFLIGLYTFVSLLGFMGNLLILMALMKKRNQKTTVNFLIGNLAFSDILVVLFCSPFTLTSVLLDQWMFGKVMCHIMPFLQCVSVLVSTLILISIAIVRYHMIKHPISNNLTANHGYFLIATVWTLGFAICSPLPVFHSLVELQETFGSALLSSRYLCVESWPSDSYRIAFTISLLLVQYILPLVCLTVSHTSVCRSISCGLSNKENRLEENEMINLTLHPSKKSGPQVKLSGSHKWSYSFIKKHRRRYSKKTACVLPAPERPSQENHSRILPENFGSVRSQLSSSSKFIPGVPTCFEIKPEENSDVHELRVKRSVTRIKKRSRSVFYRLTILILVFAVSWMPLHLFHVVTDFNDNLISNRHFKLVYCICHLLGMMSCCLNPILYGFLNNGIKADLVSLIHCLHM
In words: Radioligand binding to membranes, cloned human Y5 receptor. Summed up: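 Competition binding on membranes from stably transfected 293 or LM(tk-) cells, with 0.08 nM ¹²⁵I-PYY in pH 7.4 HEPES buffer plus 0.1% BSA, 120 min at 30 °C, filtration and counting. Nonspecific binding defined by 300 nM human NPY, or 100 nM human PP for Y4; nonlinear regression.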

Data set [2] concerns the target T2, human Y5 receptor (h NPY-5) (Homo sapiens, UniProt Q15761).
T2 construct: expressed in transfected cells; host or cells: mouse fibroblast LM(tk-) cells, e.g. L-hY5-7 (ATCC CRL-11995)
T2 sequence (Q15761 1-445): T1 sequence (Q15761 1-445)
In words: Functional assay: radioimmunoassay of cAMP. It is filed as cell-based. The note with it: functional antagonism, forskolin-stimulated cAMP, cells stably transfected with human Y5. As to the method:
LM(tk-) cells stably transfected with the human Y5 receptor were routinely converted from an adherent monolayer to a viable suspension. Adherent cells were harvested with trypsin at the point of confluence, resuspended in a minimal volume of complete DMEM for a cell count, and further diluted to a concentration of 10^6 cells/ml in suspension media (10% bovine calf serum, 10% 10× Medium 199 (Gibco), 9 mM NaHCO3, 25 mM glucose, 2 mM L-glutamine, 100 units/ml penicillin/100 μg/ml streptomycin, and 0.05% methyl cellulose). The cell suspension was maintained in a shaking incubator at 37° C., 5% CO2 for 24 hours. Membranes harvested from cells grown in this manner may be stored as large, uniform batches in liquid nitrogen. Alternatively, cells may be returned to adherent cell culture in complete DMEM by distribution into 96-well microtiter plates coated with poly-D-lysine (0.01 mg/ml) followed by incubation at 37° C., 5% CO2 for 24 hours. Cells prepared in this manner yielded a robust and reliable NPY-dependent response in cAMP radio-immunoassays as further described hereinbelow.
Stably transfected cells were seeded into 96-well microtiter plates and cultured until confluent. To reduce the potential for receptor desensitization, the serum component of the media was reduced to 1.5% for 4 to 16 hours before the assay. Cells were washed in Hank's buffered saline, or HBS (150 mM NaCl, 20 mM HEPES, 1 mM CaCl2, 5 mM KCl, 1 mM MgCl2, and 10 mM glucose) supplemented with 0.1% bovine serum albumin plus 5 mM theophylline and pre-equilibrated in the same solution for 20 min at 37° C. in 5% CO2. Cells were then incubated 5 min with 10 μM forskolin and various concentrations of receptor-selective ligands. The assay was terminated by the removal of HBS and acidification of the cells with 100 mM HCl. Intracellular cAMP was extracted and quantified with a modified version of a magnetic bead-based radioimmunoassay (Advanced Magnetics, Cambridge, Mass.). The final antigen/antibody complex was separated from free ^125I-cAMP by vacuum filtration through a PVDF filter in a microtiter plate (Millipore, Bedford, Mass.). Filters were punched and counted for ^125I in a Packard gamma counter. Binding data were analyzed using nonlinear regression and statistical techniques available in the GraphPAD Prism package (San Diego, Calif.).

Data set [3] deals with hNPY-1,2,4 (human Y1, Y2, Y4 receptors). Description: Radioligand binding to membranes, cloned human Y1, Y2 and Y4 receptors. The note with it: one bound given for all three. As to the method: Binding of the compounds of the present invention to human Y1, Y2, Y4, and Y5 receptors was evaluated using stably transfected 293 or LM(tk-) cells as described above. Stably transfected cell lines which may be used for binding assays include, for example, for the human Y1 receptor, 293-hY1-5 (deposited Jun. 4, 1996, under ATCC Accession No. CRL-12121), for the human Y2 receptor, 293-hY2-10 (deposited Jan. 27, 1994, under ATCC Accession No. CRL-11537), for the human Y4 receptor, L-hY4-3 (deposited Jan. 11, 1995, under ATCC Accession No. CRL-11779), and for human Y5 receptor, L-hY5-7 (deposited Nov. 15, 1995, under ATCC Accession No. CRL-11995). These cell lines were deposited with the American Type Culture Collection (ATCC), 10801 University Blvd., Manassas, Va. 20110-2209, U.S.A. under the provisions of the Budapest Treaty for the International Recognition of the Deposit of Microorganisms for the Purposes of Patent Procedure.
Membranes were harvested from COS-7 cells 48 hours after transient transfection. Adherent cells were washed twice in ice-cold phosphate buffered saline (138 mM NaCl, 8.1 mM Na2HPO4, 2.5 mM KCl, 1.2 mM KH2PO4, 0.9 mM CaCl2, 0.5 mM MgCl2, pH 7.4) and lysed by sonication in ice-cold sonication buffer (20 mM Tris-HCl, 5 mM EDTA, pH 7.7). Large particles and debris were cleared by low speed centrifugation (200×g, 5 min, 4° C.). Membranes were collected from the supernatant fraction by centrifugation (32,000×g, 18 min, 4° C.), washed with ice-cold hypotonic buffer, and collected again by centrifugation (32,000×g, 18 min, 4° C.). The final membrane pellet was resuspended by sonication into a small volume of ice-cold binding buffer (˜1 ml for every 5 plates: 10 mM NaCl, 20 mM HEPES, 0.22 mM KH2PO4, 1.26 mM CaCl2, 0.81 mM MgSO4, pH 7.4). Protein concentration was measured by the Bradford method (Bradford, 1976) using Bio-Rad Reagent, with bovine serum albumin as a standard. Membranes were held on ice for up to one hour and used fresh, or flash-frozen and stored in liquid nitrogen.
Membranes were prepared similarly from 293, LM(tk-), and NIH-3T3 cells. To prepare membranes from baculovirus infected cells, 2×10^7 Sf21 cells were grown in 150 mm tissue culture dishes and infected with a high-titer stock of hY5BB3. Cells were incubated for 2-4 days at 27° C., no CO2 before harvesting and membrane preparation as described above.
Membrane suspensions were diluted in binding buffer supplemented with 0.1% bovine serum albumin to yield an optimal membrane protein concentration so that ^125I-PYY (or alternative radioligand such as ^125I-NPY, ^125I-PYY3-36, or ^125I-[Leu^31Pro^34]PYY) bound by membranes in the assay was less than 10% of ^125I-PYY (or alternative radioligand) delivered to the sample (100,000 dpm/sample=0.08 nM for competition binding assays). ^125I-PYY (or alternative radioligand) and peptide competitors were also diluted to desired concentrations in supplemented binding buffer. Individual samples were then prepared in 96-well polypropylene microtiter plates by mixing 125I-PYY (25 μL) (or alternative radioligand), competing peptides or supplemented binding buffer (25 μL), and finally, membrane suspensions (200 μL). Samples were incubated in a 30° C. water bath with constant shaking for 120 min. Incubations were terminated by filtration over Whatman GF/C filters (pre-coated with 1% polyethyleneimine and air-dried before use), followed by washing with 5 mL of ice-cold binding buffer. Filter-trapped membranes were impregnated with MeltiLex solid scintillant (Wallac, Turku, Finland) and counted for ^125I in a Wallac Beta-Plate Reader. Alternatively, incubations were carried out in GF/C filter plates (pre-coated with 1% polyethyleneimine and air-dried before use), followed by vacuum filtration and three washes of 300 μL of ice-cold binding buffer. 50 μL of UltimaGold (Packard) scintillant were added and counted for ^125I in a Wallac MicroBeta Trilux. […]

The mark [4] stands for this setting: binding Ki as repeated in Table 4, read-out: Ki (h NPY-5).
The mark [5] stands for this setting: cloned human NPY Y5 receptor, radioligand competition binding, Tables 1-3, read-out: Ki, nM hNPY-5.

Read-outs that look alike come from different tables or passages of the source. Some results are limits rather than exact numbers.

The term Ki denotes the equilibrium dissociation constant of an inhibitor or competing ligand from its target. The term Kb denotes the affinity of an antagonist, worked out from how it opposes an agonist. Higher therefore signals a less potent antagonist. As to `O=S(=O)(NCCCCCNc1nc2c(s1)CCCc1ccc(F)cc1-2)c1ccccc1F` [Example 3, 1-Aza-9-fluoro-2-(5-(2-fluorophenyl)sulfonylamino)-pentylamino-4,5-dihydro-3-thia-benzo[e]azulene], the Ki in data set [1] (setting [4]) is 4.5 nM; in data set [1] (setting [5]), 4.5 nM; in data set [3], greater than 10000 nM. In data set [2], this compound had a Kb of 3.16 nM.

Consider `COCC(=O)NC[C@H]1CC[C@H](Nc2nc3c(s2)CCCc2ccc(F)cc2-3)CC1` [Example 80, N1-({4-[(9-fluoro-5,6-dihydro-4H-benzo[6,7]-cyclohepta-[d][1,3]thiazol-2-yl)amino]cyclohexyl}-methyl)-2-methoxyacetamide], for which the Ki in data set [1] (setting [4]) was 32.9 nM; in data set [1] (setting [5]), 33 nM. In data set [2], the Kb was 39.8 nM.

For `O=S(=O)(NCCCCCNc1nc2c(s1)CCCc1ccc(F)cc1-2)c1cccc2ccccc12` [Example 4, 1-Aza-9-fluoro-4,5-dihydro-2-(5-(1-naphthyl)sulfonyl-amino)-pentylamino-3-thia-benzo[e]azulene], the values for the Ki in data set [1] (setting [4]), in data set [1] (setting [5]) and in data set [3] were 19.5 nM, 19.5 nM and greater than 10000 nM, respectively. Moreover, in data set [2], the Kb is 2.51 nM.

One may read the melting point as the temperature of the solid-liquid transition. Consider `CS(=O)(=O)N[C@H]1CC[C@H](CNc2nc3c(s2)CCOc2ccccc2-3)CC1` [Example 50, trans-N2-(4-Methylsulfonylamino)cyclohexylmethyl-4,5-dihydro-benzo[2,3]oxepino[4,5-d][1,3]thiazol-2-amine], for which the melting point was in the range of 64 to 67 °C. Further, the Ki in data set [1] (setting [4]) was found to be 15.3 nM. Moreover, the inhibition constant Ki in data set [1] (setting [5]) stood at 15.3 nM. This compound also showed a Kb in data set [2] of 7.94 nM.

For the compound `O=C1OCCN1C[C@H]1CC[C@H](Nc2nc3c(s2)CCCc2ccc(F)cc2-3)CC1` [Example 79, 3-({4-[(9-fluoro-5,6-dihydro-4H-benzo[6,7]cyclohepta-[d][1,3]thiazol-2-yl)amino]cyclohexyl}methyl)-1,3-oxazolan-2-one], the inhibition constant (Ki) in data set [1] (setting [4]) worked out at 20.1 nM; in data set [1] (setting [5]), 20 nM. Moreover, in data set [2], the Kb is 12.6 nM.

In the case of `CS(=O)(=O)NC[C@H]1CC[C@H](Nc2nc3c(s2)CCCc2ccc(F)cc2-3)CC1` [Example 11, trans-1-Aza-9-fluoro-4,5-dihydro-2-(4-(methyl-sulfonylamino-methyl)cyclohexyl)amino-3-thia-benzo[e]azulene], the Ki in data set [1] (setting [4]) is 6.4 nM; in data set [1] (setting [5]), 6.4 nM; in data set [3], greater than 10000 nM. Besides, the antagonist equilibrium constant (Kb) in data set [2] was 3.16 nM.

`O=S(=O)(N[C@H]1CC[C@H](Nc2nc3c(s2)CCCc2ccc(F)cc2-3)CC1)c1cccs1` [Example 37, trans-1-Aza-9-fluoro-4,5-dihydro-2-(4-(2-thienyl)-sulfonyl-amino)cyclohexylamino-3-thia-benzo[e]azulene] gave a melting point of 230 to 231 °C. Besides, the Ki in data set [1] (setting [5]) was found to be 7.4 nM. Moreover, the Ki in data set [3] is greater than 10000 nM.

Regarding `CS(=O)(=O)NCCCCC(=O)Nc1nc2c(s1)CCCc1ccc(F)cc1-2` [Example 45, N1-(9-fluoro-5,6-dihydro-4H-benzo[6,7]cyclohepta-[d][1,3]thiazol-2-yl)-5-[(methylsulfonyl)amino]-pentanamide], the melting point is 145 to 147 °C. The Ki in data set [1] (setting [5]) was 65 nM. In addition, the Ki in data set [3] was greater than 10000 nM.

As to `COc1ccc(C)cc1S(=O)(=O)NCCCCCNc1nc2c(s1)CCCc1ccc(F)cc1-2` [Example 15, 1-Aza-9-fluoro-4,5-dihydro-2-(5-(2-methoxy-5-methyl-phenyl)sulfonylamino)pentylamino-3-thia-benzo[e]-azulene], the Ki in data set [1] (setting [4]) and in data set [1] (setting [5]) was 3.2 nM in each case. For the same compound, the antagonist dissociation constant (Kb) in data set [2] is 2.51 nM.

For the compound `CS(=O)(=O)N[C@H]1CC[C@H](Nc2nc3c(s2)CCCc2ccc(F)cc2-3)CC1` [Example 34, trans-1-Aza-9-fluoro-4,5-dihydro-2-(4-methyl-sulfonylamino)-cyclohexylamino-3-thia-benzo[e]azulene], the melting point was in the range of 179 to 181 °C. The Ki in data set [1] (setting [4]) was 33.5 nM. The Ki in data set [1] (setting [5]) stood at 34 nM. Also, in data set [2], the Kb was 63.1 nM.

`CS(=O)(=O)NC[C@H]1CC[C@H](Nc2nc3c(s2)CCOc2ccccc2-3)CC1` [Example 47, trans-N2-(4-Methylsulfonylaminomethyl)cyclohexyl-4,5-dihydro-benzo[2,3]oxepino[4,5-d][1,3]thiazol-2-amine] displayed a melting point of 67 to 69 °C. Further, the inhibition constant (Ki) in data set [1] (setting [5]) worked out at 22 nM. In data set [3], this compound had an inhibition constant Ki greater than 10000 nM.
